Holding throughout (format): functional
Experiment [1] relates to Cucumis sativus. Nature of the experiment: Growth regulation of Cucumis sativus (cucumber) seeds assessed as stimulation of radicle growth at 10 mg/l at 26 degC after 5 days.
The subject of experiment [2] is Culex pipiens pallens. Description: Larvicidal activity against fourth-instar larval stage of Culex pipiens pallens (mosquito) assessed as mortality at 0.01 mg/l at 25 +/-1 degC after 8 days. To be noted: 192 h.
For experiment [3], the system named is Culex pipiens pallens. Description: Larvicidal activity against fourth-instar larval stage of Culex pipiens pallens (mosquito) assessed as mortality at 0.25 mg/l at 25 +/-1 degC after 8 days. To be noted: 192 h.
The test system of experiment [4] is Culex pipiens pallens. Nature of the experiment: Larvicidal activity against fourth-instar larval stage of Culex pipiens pallens (mosquito) assessed as mortality at 0.5 mg/l at 25 +/-1 degC after 8 days. To be noted: 192 h.
Experiment [5] has as its system Culex pipiens pallens. Description: Larvicidal activity against fourth-instar larval stage of Culex pipiens pallens (mosquito) assessed as mortality at 1 mg/l at 25 +/-1 degC after 8 days. To be noted: 192 h.
Experiment [6] has as its system Culex pipiens pallens. Description: Larvicidal activity against fourth-instar larval stage of Culex pipiens pallens (mosquito) assessed as mortality at 0.05 mg/l at 25 +/-1 degC after 8 days. To be noted: 192 h.
Experiment [7] deals with Culex pipiens pallens. Nature of the experiment: Larvicidal activity against fourth-instar larval stage of Culex pipiens pallens (mosquito) assessed as mortality at 0.025 mg/l at 25 +/-1 degC after 8 days. To be noted: 192 h.
For experiment [8], the system named is Culex pipiens pallens. Description: Larvicidal activity against fourth-instar larval stage of Culex pipiens pallens (mosquito) assessed as mortality at 0.1 mg/l at 25 +/-1 degC after 8 days. As to conditions: 192 h.
The subject of experiment [9] is Mythimna separata. Description: Larvicidal activity against fourth-instar larval stage of Mythimna separata (Oriental armyworm) in compound-pretreated corn leaves assessed as mortality at 50 mg/l at 25 +/-1 degC after 4 days.
The subject of experiment [10] is Mythimna separata. Nature of the experiment: Larvicidal activity against fourth-instar larval stage of Mythimna separata (Oriental armyworm) in compound-pretreated corn leaves assessed as mortality at 25 mg/l at 25 +/-1 degC after 4 days.
Experiment [11] concerns Mythimna separata. Description: Larvicidal activity against fourth-instar larval stage of Mythimna separata (Oriental armyworm) in compound-pretreated corn leaves assessed as mortality at 100 mg/l at 25 +/-1 degC after 4 days.
The test system of experiment [12] is Mythimna separata. Description: Larvicidal activity against fourth-instar larval stage of Mythimna separata (Oriental armyworm) in compound-pretreated corn leaves assessed as mortality at 5 mg/l at 25 +/-1 degC after 4 days.
Experiment [13] deals with Mythimna separata. Nature of the experiment: Larvicidal activity against fourth-instar larval stage of Mythimna separata (Oriental armyworm) in compound-pretreated corn leaves assessed as mortality at 10 mg/l at 25 +/-1 degC after 4 days.
Experiment [14] concerns Mythimna separata. Nature of the experiment: Larvicidal activity against fourth-instar larval stage of Mythimna separata (Oriental armyworm) in compound-pretreated corn leaves assessed as mortality at 2.5 mg/l at 25 +/-1 degC after 4 days.
The test system of experiment [15] is Mythimna separata. Description: Larvicidal activity against fourth-instar larval stage of Mythimna separata (Oriental armyworm) in compound-pretreated corn leaves assessed as mortality at 1 mg/l at 25 +/-1 degC after 4 days.
Experiment [16] has as its system Mythimna separata. Nature of the experiment: Larvicidal activity against fourth-instar larval stage of Mythimna separata (Oriental armyworm) in compound-pretreated corn leaves assessed as mortality at 200 mg/l at 25 +/-1 degC after 4 days.

In general, mortality refers to the share of the test organisms that died. As to `CO/N=C/c1ccc(NC(=O)NC(=O)c2c(F)cccc2F)cc1`, the Activity in experiment [1] is listed as 30%. Further, the mortality at 0.01 µg/mL in [2] came to 0%. For the same compound, in [3], the mortality at 0.25 µg/mL worked out at 100%. Also, the mortality at 0.5 µg/mL in [4] amounted to 100%. The mortality at 1 µg/mL in [5] stood at 100%. For the same compound, in experiment [6], the mortality at 0.05 µg/mL came to 100%. Further, the mortality at 0.025 µg/mL in experiment [7] turned out to be 10%. Besides, the mortality at 0.1 µg/mL in [8] turned out to be 100%. For the same compound, the mortality at 50 µg/mL in [9] was 40%. For the same compound, the mortality at 25 µg/mL in experiment [10] turned out to be 0%. Further, the mortality at 100 µg/mL in experiment [11] came out at 90%.
In the case of `O=C(NC(=O)c1c(F)cccc1F)Nc1ccc(/C=N/OCCCl)cc1`, the Activity in [1] was 110%. The mortality at 0.01 µg/mL in experiment [2] stood at 0%. The mortality at 0.25 µg/mL in [3] was 100%. Further, the mortality at 0.5 µg/mL in [4] stood at 100%. Also, the mortality at 1 µg/mL in experiment [5] was found to be 100%; in experiment [15], 0%. Also, the mortality at 0.05 µg/mL in experiment [6] worked out at 90%. In addition, the mortality at 0.025 µg/mL in experiment [7] is 20%. Moreover, the mortality at 0.1 µg/mL in experiment [8] turned out to be 90%. In experiment [12], the mortality at 5 µg/mL was 75%. The mortality at 10 µg/mL in [13] was 100%. In addition, the mortality at 50 µg/mL in [9] was found to be 100%. The mortality at 2.5 µg/mL in [14] was found to be 55%.
For `COC(=O)CO/N=C/c1ccc(NC(=O)NC(=O)c2c(F)cccc2F)cc1`, in [3], the mortality at 0.25 µg/mL is 80%. The mortality at 0.5 µg/mL in experiment [4] turned out to be 100%. Moreover, the mortality at 1 µg/mL in experiment [5] was determined as 100%. For the same compound, the mortality at 0.1 µg/mL in experiment [8] worked out at 0%. In addition, in experiment [13], the mortality at 10 µg/mL stood at 10%. Besides, in experiment [9], the mortality at 50 µg/mL stood at 56.7%. Also, in experiment [10], the mortality at 25 µg/mL was found to be 30%. Also, the mortality at 100 µg/mL in experiment [11] came out at 80%. Besides, the mortality at 200 µg/mL in experiment [16] is 90%. Also, the mortality at 2.5 µg/mL in experiment [14] is 0%.
With `C=CCO/N=C/c1ccc(NC(=O)NC(=O)c2c(F)cccc2F)cc1`, in experiment [1], the Activity came out at 120%. Also, the mortality at 0.25 µg/mL in experiment [3] was 100%. For the same compound, in [4], the mortality at 0.5 µg/mL was determined as 100%. In addition, the mortality at 1 µg/mL in experiment [5] came out at 100%. The mortality at 0.025 µg/mL in experiment [7] amounted to 0%. The mortality at 0.1 µg/mL in [8] came out at 90%. Further, the mortality at 10 µg/mL in experiment [13] was 0%. For the same compound, the mortality at 50 µg/mL in experiment [9] was 66.7%. Moreover, the mortality at 25 µg/mL in experiment [10] is 10%. The mortality at 100 µg/mL in [11] amounted to 90%.
Turning to `CC(C)CO/N=C/c1ccc(NC(=O)NC(=O)c2c(F)cccc2F)cc1`, in experiment [1], the Activity is recorded as 45%. Besides, in experiment [2], the mortality at 0.01 µg/mL was found to be 0%. Also, in experiment [3], the mortality at 0.25 µg/mL was 100%. In addition, the mortality at 0.5 µg/mL in [4] amounted to 100%. The mortality at 1 µg/mL in experiment [5] is 100%. In experiment [6], the mortality at 0.05 µg/mL is 10%. Also, in experiment [7], the mortality at 0.025 µg/mL was 10%. Moreover, the mortality at 0.1 µg/mL in experiment [8] came to 100%. The mortality at 50 µg/mL in [9] was determined as 80%. In addition, the mortality at 25 µg/mL in experiment [10] amounted to 30%. In addition, the mortality at 100 µg/mL in [11] is 100%. Further, the mortality at 2.5 µg/mL in experiment [14] came out at 0%.
Turning to `CCO/N=C/c1ccc(NC(=O)NC(=O)c2c(F)cccc2F)cc1`, the Activity in experiment [1] is given as 0%. In [2], the mortality at 0.01 µg/mL worked out at 0%. For the same compound, the mortality at 0.25 µg/mL in experiment [3] is 100%. Besides, the mortality at 0.5 µg/mL in experiment [4] worked out at 100%. In experiment [5], the mortality at 1 µg/mL was 100%. In addition, the mortality at 0.025 µg/mL in [7] turned out to be 10%. Further, the mortality at 0.1 µg/mL in experiment [8] was found to be 100%. Also, the mortality at 5 µg/mL in [12] is 0%. The mortality at 10 µg/mL in experiment [13] came out at 10%. Also, the mortality at 50 µg/mL in experiment [9] worked out at 100%. For the same compound, in [10], the mortality at 25 µg/mL was found to be 75%. In [11], the mortality at 100 µg/mL turned out to be 100%.
For the compound `O=C(NC(=O)c1c(F)cccc1F)Nc1ccc(/C=N/OC2CCCC2)cc1`, in experiment [1], the Activity was 85%. Further, the mortality at 0.25 µg/mL in [3] stood at 100%. In addition, the mortality at 0.5 µg/mL in [4] turned out to be 100%. Besides, the mortality at 1 µg/mL in [5] was found to be 100%. The mortality at 0.05 µg/mL in [6] came out at 10%. Further, in experiment [7], the mortality at 0.025 µg/mL was 0%. For the same compound, the mortality at 0.1 µg/mL in experiment [8] turned out to be 100%. Besides, the mortality at 50 µg/mL in experiment [9] came to 0%. The mortality at 100 µg/mL in experiment [11] is 20%. For the same compound, the mortality at 200 µg/mL in experiment [16] came out at 70%.
Consider `O=C(NC(=O)c1c(F)cccc1F)Nc1ccc(/C=N/OCc2ccccc2)cc1`, for which the Activity in experiment [1] is 60%. Further, the mortality at 0.25 µg/mL in [3] is 20%. The mortality at 0.5 µg/mL in experiment [4] was 100%. In addition, in experiment [5], the mortality at 1 µg/mL came out at 100%. In addition, the mortality at 0.1 µg/mL in [8] turned out to be 10%. In experiment [9], the mortality at 50 µg/mL was found to be 10%. Further, in experiment [10], the mortality at 25 µg/mL is 0%. Also, the mortality at 100 µg/mL in [11] amounted to 30%. In addition, in experiment [16], the mortality at 200 µg/mL was 40%.

For the origin of these results see ChEMBL document CHEMBL3045590, “Design, synthesis, bioactivity, and structure-activity relationship (SAR) studies of novel benzoylphenylureas containing oxime ether group” (2008).
